Results reported in patent US6479531B1, “Gastrin and cholecystokinin receptor ligands” (James Black Foundation Limited, priority 1998, dated 2002).

Columns and labels:
[1] = target: T1, CCKB receptor (Mus musculus, UniProt P56481); assay: CCKB receptor radioligand binding assay in mouse cortical membranes; conditions: [125I]-CCK8(S) 200 pM, 150 min at 21±3°, read-out: CCKB pKi (converted)
T1 construct: The whole brains from male mice (CD1 22-25 g; Charles River) were removed; from tissue; host or cells: cerebral cortex membranes of male CD1 mice
T1 sequence (P56481 1-453): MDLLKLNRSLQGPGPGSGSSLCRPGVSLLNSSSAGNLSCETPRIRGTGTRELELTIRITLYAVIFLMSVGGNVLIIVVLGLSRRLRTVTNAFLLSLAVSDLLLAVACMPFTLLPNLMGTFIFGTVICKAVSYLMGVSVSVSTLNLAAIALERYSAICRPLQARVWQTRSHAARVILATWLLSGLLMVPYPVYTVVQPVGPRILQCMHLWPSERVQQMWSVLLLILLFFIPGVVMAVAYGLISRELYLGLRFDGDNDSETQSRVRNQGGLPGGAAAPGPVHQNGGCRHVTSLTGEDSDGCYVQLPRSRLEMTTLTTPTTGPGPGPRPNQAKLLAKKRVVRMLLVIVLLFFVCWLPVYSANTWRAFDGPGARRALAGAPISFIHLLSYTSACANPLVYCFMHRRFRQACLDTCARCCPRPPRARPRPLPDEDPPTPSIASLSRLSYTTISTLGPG
Summary of the method: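 Bound radioactivity was gamma-counted after rapid GF/B filtration and cold 50 mM Tris-HCl (pH 7.4) washes. The tissue was cerebral cortex from male CD1 mice, prepared as twice-centrifuged membranes in pH 7.2 HEPES/NaCl/KCl/MgCl2/EDTA buffer with bacitracin at 20 mg/ml original wet weight.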

[2] = target: T2, gastrin receptor (Rattus norvegicus, UniProt P30553); assay: gastrin antagonist activity in immature rat stomach assay (pentagastrin dose-response, acid secretion); conditions: isolated immature rat stomach, cumulative pentagastrin dose-response curves, read-out: Gastrin pKb (converted)
T2 construct: The stomach was excised and flushed with ca. 1 ml of unbuffered physiological saline solution; from tissue; host or cells: isolated whole stomach of immature rats (ca. 21 days old)
T2 sequence (P30553 1-452): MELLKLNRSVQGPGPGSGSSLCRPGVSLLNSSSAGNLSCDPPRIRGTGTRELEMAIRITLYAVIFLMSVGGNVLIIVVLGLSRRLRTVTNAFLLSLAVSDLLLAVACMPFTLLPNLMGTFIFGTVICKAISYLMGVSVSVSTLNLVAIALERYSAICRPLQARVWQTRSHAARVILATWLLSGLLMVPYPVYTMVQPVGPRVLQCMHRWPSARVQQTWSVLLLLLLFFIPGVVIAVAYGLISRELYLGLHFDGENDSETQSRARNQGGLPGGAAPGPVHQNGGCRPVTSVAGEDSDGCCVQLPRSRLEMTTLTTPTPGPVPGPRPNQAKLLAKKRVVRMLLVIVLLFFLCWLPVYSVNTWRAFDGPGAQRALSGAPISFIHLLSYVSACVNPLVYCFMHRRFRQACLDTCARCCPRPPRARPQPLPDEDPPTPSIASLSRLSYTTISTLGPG
Summary of the method: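 Isolated, lumen-perfused stomach from immature rats (33-50 g, ca. 21 days) in a 37° organ bath with 3×10^−8 M 5-methylfurmethide, gassed 95% O2/5% CO2. Compound added serosally after 120 min stabilisation; cumulative pentagastrin dose-response curves begun 60 min later, acid secretion followed by perfusate pH.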

Row | Ki [1] | Kb [2] | Compound
1 | 0.0871 µM | 1.62 µM | O=C(O)c1cc(NC(=O)c2cc(-c3ccc4ccccc4c3)[nH]c2CC23CC4CC(CC(C4)C2)C3)cc(C(=O)O)c1 [Example 4, 5-[(2-Adamantan-1-ylmethyl-5-naphthalen-2-yl-1H-pyrrole-3-carbonyl)-amino]-isophthalic Acid]
2 | 0.0871 µM | 1.62 µM | O=C(O)c1cc(NC(=O)c2cc(-c3ccc4ccccc4c3)[nH]c2CC2CCCCCC2)cc(C(=O)O)c1 [Example 11, 5-[(2-Cycloheptylmethyl-5-naphthalene-2-yl-1H-pyrrole-3-carbonyl)-amino]-isophthalic Acid]
3 | 1.12 µM | 1 µM | O=C(O)c1cccc(NC(=O)c2cc(-c3ccccc3)[nH]c2CC2CCCCCC2)c1 [Example 12, 3-[(2-Cycloheptylmethyl-5-phenyl-1H-pyrrole-3-carbonyl)-amino]-benzoic Acid]
4 | 1 µM | 0.479 µM | O=C(O)c1cc(NC(=O)c2[nH]c(-c3ccccc3)nc2CC2CCCCCC2)cc(C(=O)O)c1 [Example 24, 5-[(5-Cycloheptylmethyl-2-phenyl-1H-imidazole-4-carbonyl)-amino]-isophthalic Acid]
5 | 1.48 µM | 0.407 µM | O=C(O)c1cccc(NC(=O)c2nc(-c3ccccc3)[nH]c2CC2CCCCCC2)c1 [Example 26, 3-[(5-Cycloheptylmethyl-2-phenyl-1H-imidazole-4-carbonyl)-amino]-benzoic Acid]
6 | 0.209 µM | 1.26 µM | O=C(O)c1cc(NC(=O)c2[nH]c(-c3ccccc3)nc2CC23CC4CC(CC(C4)C2)C3)cc(C(=O)O)c1 [Example 37, 5-[(5-Adamantan-1-ylmethyl-2-phenyl-1H-imidazole-4-carbonyl)-amino]-isophthalic Acid]
7 | 0.933 µM | 0.204 µM | O=C(O)c1cccc(NC(=O)c2nc(-c3ccccc3C(F)(F)F)[nH]c2CCC2CCCCCC2)c1 [Example 40, 3-{[5-(2-Cycloheptyl-ethyl)-2-(2-trifluoromethyl-phenyl)-1H-imidazole-4-carbonyl]-amino}-benzoic Acid]
8 | 1.51 µM | 0.0501 µM | COc1cccc(-c2nc(C(=O)Nc3cccc(C(=O)O)c3)c(CCC3CCCCCC3)[nH]2)c1 [Example 42, 3-{[5-(2-Cycloheptyl-ethyl)-2-(3-methoxy-phenyl)-1H-imidazole-4-carbonyl]-amino}-benzoic Acid]
9 | 0.851 µM | 0.0631 µM | O=C(O)c1cccc(NC(=O)c2nc(-c3ccccc3F)[nH]c2CCC2CCCCCC2)c1 [Example 43, 3-{[5-(2-Cycloheptyl-ethyl)-2-(2-fluoro-phenyl)-1H-imidazole-4-carbonyl]-amino}-benzoic Acid]
10 | 0.646 µM | 2.51 µM | O=C(O)c1cc(NC(=O)c2[nH]c(-c3ccccc3)nc2CCC23CC4CC(CC(C4)C2)C3)cc(C(=O)O)c1 [Example 46, 5-{[5-(2-Adamantan-1-yl-ethyl)-2-phenyl-1H-imidazole-4-carbonyl]-amino}-isophthalic Acid]
11 | 0.251 µM | 0.234 µM | O=C(O)c1cccc(NC(=O)c2[nH]c(-c3ccccc3)nc2CCC23CC4CC(CC(C4)C2)C3)c1 [Example 47, 3-{[5-(2-Adamantan-1-yl-ethyl)-2-phenyl-1H-imidazole-4-carbonyl]-amino}-benzoic Acid]
12 | 0.331 µM | 0.0263 µM | O=C(O)c1cccc(NC(=O)c2nc(-c3ccccc3F)[nH]c2CCC23CC4CC(CC(C4)C2)C3)c1 [Example 50, 3-{[5-(2-Adamantan-1-yl-ethyl)-2-(2-fluoro-phenyl)-1H-imidazole-4-carbonyl]-amino}-benzoic Acid]
13 | 0.309 µM | 0.813 µM | O=C(O)c1cccc(NC(=O)c2nc(-c3ccc(F)cc3)[nH]c2CCC23CC4CC(CC(C4)C2)C3)c1 [Example 54, 3-{[5-(2-Adamantan-1-yl-ethyl)-2-(4-fluoro-phenyl)-1H-imidazole-4-carbonyl]-amino}-benzoic Acid]
14 | 0.646 µM | 0.229 µM | O=C(O)c1cccc(NC(=O)c2nc(-c3cccc(F)c3)[nH]c2CCC23CC4CC(CC(C4)C2)C3)c1 [Example 55, 3-{[5-(2-Adamantan-1-yl-ethyl)-2-(3-fluoro-phenyl)-1H-imidazole-4-carbonyl]-amino}-benzoic Acid]
15 | 0.24 µM | 0.0182 µM | O=C(O)c1cccc(NC(=O)c2nc(-c3ccccc3C(F)(F)F)[nH]c2CCC23CC4CC(CC(C4)C2)C3)c1 [Example 56, 3-{[5-(2-Adamantan-1-yl-ethyl)-2-(2-trifluoromethyl-phenyl)-1H-imidazole-4-carbonyl]-amino}-benzoic Acid]
16 | 0.12 µM | 0.0589 µM | Cc1ccccc1-c1nc(C(=O)Nc2cccc(C(=O)O)c2)c(CCC23CC4CC(CC(C4)C2)C3)[nH]1 [Example 57, 3-{[5-(2-Adamantan-1-yl-ethyl)-2-o-tolyl-1H-imidazole-4-carbonyl]-amino}-benzoic Acid]
17 | 0.794 µM | 0.0229 µM | COc1ccccc1-c1nc(C(=O)Nc2cccc(C(=O)O)c2)c(CCC23CC4CC(CC(C4)C2)C3)[nH]1 [Example 58, 3-{[5-(2-Adamantan-1-yl-ethyl)-2-(2-methoxy-phenyl)-1H-imidazole-4-carbonyl]-amino}-benzoic Acid]
18 | 0.251 µM | 0.0575 µM | O=C(O)c1cccc(NC(=O)c2nc(-c3ccccc3Br)[nH]c2CCC23CC4CC(CC(C4)C2)C3)c1 [Example 59, 3-{[5-(2-Adamantan-1-yl-ethyl)-2-(2-bromo-phenyl)-1H-imidazole-4-carbonyl]-amino}-benzoic Acid]
19 | 0.141 µM | 0.00776 µM | O=C(O)c1cccc(NC(=O)c2nc(-c3ccc(F)cc3F)[nH]c2CCC23CC4CC(CC(C4)C2)C3)c1 [Example 60, 3-{[5-(2-Adamantan-1-yl-ethyl)-2-(2,4-difluoro-phenyl)-1H-imidazole-4-carbonyl]-amino}-benzoic Acid]
20 | 0.148 µM | 0.0316 µM | O=C(O)c1cccc(NC(=O)c2nc(-c3c(F)cccc3F)[nH]c2CCC23CC4CC(CC(C4)C2)C3)c1 [Example 61, 3-{[5-(2-Adamantan-1-yl-ethyl)-2-(2,6-difluoro-phenyl)-1H-imidazole-4-carbonyl]-amino}-benzoic Acid]
21 | 0.389 µM | 1.2 µM | O=C(O)c1cccc(NC(=O)c2nc(-c3cccc(O)c3)[nH]c2CCC23CC4CC(CC(C4)C2)C3)c1 [Example 62, 3-{[5-(2-Adamantan-1-yl-ethyl)-2-(3-hydroxy-phenyl)-1H-imidazole-4-carbonyl]-amino}-benzoic Acid]
22 | 1.1 µM | 1.62 µM | O=C(O)c1cccc(NC(=O)c2nc(-c3ccc(O)cc3)[nH]c2CCC23CC4CC(CC(C4)C2)C3)c1 [Example 63, 3-{[5-(2-Adamantan-1-yl-ethyl)-2(4-hydroxy-phenyl)-1H-imidazole-4-carbonyl]-amino}-benzoic Acid]
23 | 0.0562 µM | 0.1 µM | Cc1cccc(C)c1-c1nc(C(=O)Nc2cccc(C(=O)O)c2)c(CCC23CC4CC(CC(C4)C2)C3)[nH]1 [Example 65, 3-{[5-(2-Adamantan-1-yl-ethyl)-2-(2,6-dimethyl-phenyl)-1H-imidazole-4-carbonyl]-amino}-benzoic Acid]
24 | 0.2 µM | 0.055 µM | Cc1ccc(C)c(-c2nc(C(=O)Nc3cccc(C(=O)O)c3)c(CCC34CC5CC(CC(C5)C3)C4)[nH]2)c1 [Example 66, 3-{[5-(2-Adamantan-1-yl-ethyl)-2-(2,5-dimethyl-phenyl)-1H-imidazole-4-carbonyl]-amino}-benzoic Acid]
25 | 0.0832 µM | 0.01 µM | Cc1ccc(-c2nc(C(=O)Nc3cccc(C(=O)O)c3)c(CCC34CC5CC(CC(C5)C3)C4)[nH]2)c(C)c1 [Example 67, 3-{[5-(2-Adamantan-1-yl-ethyl)-2-(2,4-dimethyl-phenyl)-1H-imidazole-4-carbonyl]-amino}-benzoic Acid]
26 | 0.398 µM | 0.0891 µM | O=C(O)c1cccc(NC(=O)c2nc(-c3cccc(Cl)c3Cl)[nH]c2CCC23CC4CC(CC(C4)C2)C3)c1 [Example 69, 3-{[5-(2-Adamantan-1-yl-ethyl)-2-(2,3-dichloro-phenyl)-1H-imidazole-4-carbonyl]-amino}-benzoic Acid]
